From patent US20240344062A1, “RIBOSOMAL RNA (rRNA) VARIANTS […] PROTEIN PRODUCTION CAPABILITIES” (THE BROAD INSTITUTE, INC., priority 2021, published 2024) come the findings set out here.

This series has as its system gIII under o-RBS variants. Nature of the series: Two-stage selection of o-RBS/o-antiRBS pairs (phage titers post infection). The note with it: seven o-RBS variants with o-antiRBSlib SPs.

Regarding “o-RBSH3: orthogonal ribosome binding site, SEQ ID NO: 7 (DNA UUUCCAAUAUACAGAUCUAUG; listed as RNA, chemistry not fully specified)”, the “propagation (phage titers) post infection” value is listed as “highest titers”.
